Experiments:
[1] = molecular target: T1, L-Lactate Oxidase (Enterococcus casseliflavus, UniProt C9AC47); assay: biochemical
T1 sequence (C9AC47 1-367): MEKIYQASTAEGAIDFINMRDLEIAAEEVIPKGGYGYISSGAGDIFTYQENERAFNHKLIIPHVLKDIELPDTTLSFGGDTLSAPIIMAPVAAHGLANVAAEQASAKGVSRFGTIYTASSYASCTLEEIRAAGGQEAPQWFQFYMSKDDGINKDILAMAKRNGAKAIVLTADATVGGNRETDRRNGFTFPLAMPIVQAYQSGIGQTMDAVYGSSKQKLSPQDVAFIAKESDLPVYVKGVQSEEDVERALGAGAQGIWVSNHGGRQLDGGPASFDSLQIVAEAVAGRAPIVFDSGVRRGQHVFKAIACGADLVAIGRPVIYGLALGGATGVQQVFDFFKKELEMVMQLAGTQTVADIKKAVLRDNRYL
Method: In the examples, oxidative enzymes were prepared from Streptococcus faecium ATCC 12755. L-lactate oxidase was isolated from Streptococcus faecium as a 0-50% ammonium sulfate fraction as described in Esders et al., U.S. Pat. No. 4,166,763 issued Sept. 4, 1979. L-α-glycerophosphate oxidase was purified from Streptococcus faecium as described in Table V, of Research Disclosure Publication No. 16146 published Sept. 10, 1977.
In the examples, enzyme assays for lactate oxidase were carried out as follows: Assay reaction mixtures contained in a total volume of 1.0 ml: 100 μmoles potassium phosphate buffer, pH 7.0, 25 μmoles lactic acid, […] horseradish peroxidase (4.6 purpurogallin units), and 0.25 μmoles orthodianisidine. Compounds to be tested as potential inhibitors for lactate oxidase were added to the assay reaction mixtures as indicated in Example 1. Samples were equilibrated at 30° C. and then reactions were initiated by addition of Streptococcus faecium lactate oxidase. Absorbance at 430 nm was measured in a Beckman 25 spectrophotometer. Initial rates were calculated from the linear portion of the curve.

[2] = molecular target: T2, lactate oxidase activity in partially purified L-α-glycerophosphate oxidase (Enterococcus casseliflavus, UniProt C9AC47); assay: Lactate blank reaction in dry chemistry triglyceride test element; assay type: biochemical; settings: for Response to Lactate (DR): partially purified α-GPO, 10 μl DL-lactate 20 mg/dl, 540 nm, 7 min, 37° C.
T2 sequence (C9AC47 1-367): T1 sequence (C9AC47 1-367)
Method: (§1) In the examples, non-fibrous, multilayer, "dry chemistry" analytical elements for determination of serum triglycerides were formulated having the following structure and composition: […]
(§2) The enzymatic reagent layer composition of the above-noted "dry chemistry" analytical element contained deionized gelatin (5.4 g/m^2); gel hardener (32.4 mg/m^2); poly(methyl acrylate-co-2-acrylamido-2-methylpropanesulfonic acid-co-2-acetoacetoxyethyl methacrylate) having a monomer weight ratio of (88.8:4.7:6.5) as peroxidase stabilizer (5.4 g/m^2); 0.05 M potassium phosphate buffer, pH 7.0; Triton X-100 surfactant (389 mg/m^2); 2-(3,5-dimethoxy-4-hydroxyphenyl)4,5-bis(4-dimethylaminophenyl)imidazole as a leuco dye (405 mg/m^2 dispersed in 2,4-di-n-amylphenol (4.05 g/m^2); antioxidant (324 mg/m^2); MgCl (103 mg/m^2); adenosinetriphosphate (1.35 g/m^2); peroxidase (7020 U/m^2); glycerol kinase (324 U/m^2); and either purified or partially purified L-α-glycerophosphate oxidase (2840 U/m^2). When the partially purified L-α-glycerophosphate oxidase was used, glycolate was incorporated into that layer in the amounts noted below in Example 2.
A. Dry Chemistry Test Element Mode: Dry chemistry analytical elements for the determination of triglycerides were prepared with either the purified or partially purified L-α-GPO as described above. To each element, a 10 μl sample of DL-lactate (20 mg/dl) was applied and the reflection density of the element, DR, at 540 nm was measured through the element support after a seven-minute incubation at 37° C.

[3] = test system: components of the triglyceride detection system; assay: Response of dry chemistry triglyceride test elements to test fluids; settings: 81 or 405 mg/m^2 glycolate in element
Method: as §1
as §2, with “When the partially purified L-α-glycerophosphate oxidase was used, glycolate was incorporated into that layer in the amounts noted below in Example 2.” left out
Dry chemistry analytical elements (as described above) containing purified L-α-glycerophosphate oxidase and partially purified enzyme plus two different levels of glycolate were compared for response to serum triglycerides and glycerol. […] After a sevenminute incubation at 37° C., the reflection density, DR, at 540 nm was measured through the element support. […]

## O=C(O)CO [Glycolic Acid]
[1]
  inhibition of lactate oxidase activity (in words): greatly inhibit
[1]; acid 10mM, read-out: LO % Inhibition
  inhibition at 10000 µM: 90%
[1]; compound at 5 mM, 30° C., pH 7.0, rate without compound = 100%, read-out: L-Lactate Oxidase Percent Inhibition
  inhibition at 5000 µM: 90%
[2]; 81 mg/m^2 glycolic acid
  lactate blank relative to control (purified α-GPO): 1.6 times control
  Response to Lactate (DR): 0.04
[2]; 405 mg/m^2 glycolic acid
  reaction with lactate compared with control (purified α-GPO): less than that observed with the purified L-α-glycerophosphate oxidase
  Response to Lactate (DR): 0.01
[3]
  inhibition of the components of the triglyceride detection system (in words): did not inhibit any of the components of the triglyceride detection system
